According to ChEMBL document CHEMBL1146741, “Cycloalkyl[b][1,4]benzodiazepinoindoles are agonists at the human 5-HT2C receptor” (Bioorg Med Chem Lett, 2004):

Experiments:
[1] = biological target: T1, 5-hydroxytryptamine receptor 2A (Homo sapiens, UniProt P28223); assay: Agonistic binding affinity against human 5-hydroxytryptamine 2A receptor in CHO cells using [125I]-DOI
[2] = biological target: T2, 5-hydroxytryptamine receptor 2C (Homo sapiens) (UniProt P28335); assay: Agonistic binding efficacy against human 5-hydroxytryptamine 2C receptor in CHO cells using [125I]- DOI radioligand; format: cell-based
T2 sequence (whole entry): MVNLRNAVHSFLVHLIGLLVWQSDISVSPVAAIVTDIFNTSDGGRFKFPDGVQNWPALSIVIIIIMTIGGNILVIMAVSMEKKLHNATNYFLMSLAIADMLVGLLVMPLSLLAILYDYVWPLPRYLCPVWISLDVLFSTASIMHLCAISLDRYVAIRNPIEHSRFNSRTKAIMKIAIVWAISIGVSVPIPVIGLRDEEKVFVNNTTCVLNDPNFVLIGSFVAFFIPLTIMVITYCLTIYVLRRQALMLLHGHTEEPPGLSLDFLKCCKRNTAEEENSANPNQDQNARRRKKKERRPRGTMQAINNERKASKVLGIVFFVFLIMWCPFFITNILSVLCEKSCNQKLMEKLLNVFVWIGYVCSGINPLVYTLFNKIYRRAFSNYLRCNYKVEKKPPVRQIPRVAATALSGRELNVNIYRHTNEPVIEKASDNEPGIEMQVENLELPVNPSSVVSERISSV

[3] = biological target: D(4) dopamine receptor (Homo sapiens) (UniProt P21917); assay: Percent binding affinity against dopamine receptor D4; details: concentration not given here
[4] = biological target: D(3) dopamine receptor (Homo sapiens) (UniProt P35462); assay: Percent binding affinity against dopamine D3 receptor; details: concentration not given here
[5] = biological target: T2, 5-hydroxytryptamine receptor 2C (Homo sapiens); assay: Agonistic binding affinity against human 5-hydroxytryptamine 2C receptor in CHO cells using [125I]- DOI radioligand, expressed as Emax; format: cell-based
[6] = biological target: T1, 5-hydroxytryptamine receptor 2A; assay: Effective concentration against human 5-hydroxytryptamine 2A receptor in CHO cells by stimulation of [3H]inositol monophosphate production
[7] = biological target: T3, 5-hydroxytryptamine receptor 1A (Homo sapiens) (UniProt P08908); assay: Percent binding affinity against 5-hydroxytryptamine 1A receptor; details: concentration not given here
T3 sequence (whole entry): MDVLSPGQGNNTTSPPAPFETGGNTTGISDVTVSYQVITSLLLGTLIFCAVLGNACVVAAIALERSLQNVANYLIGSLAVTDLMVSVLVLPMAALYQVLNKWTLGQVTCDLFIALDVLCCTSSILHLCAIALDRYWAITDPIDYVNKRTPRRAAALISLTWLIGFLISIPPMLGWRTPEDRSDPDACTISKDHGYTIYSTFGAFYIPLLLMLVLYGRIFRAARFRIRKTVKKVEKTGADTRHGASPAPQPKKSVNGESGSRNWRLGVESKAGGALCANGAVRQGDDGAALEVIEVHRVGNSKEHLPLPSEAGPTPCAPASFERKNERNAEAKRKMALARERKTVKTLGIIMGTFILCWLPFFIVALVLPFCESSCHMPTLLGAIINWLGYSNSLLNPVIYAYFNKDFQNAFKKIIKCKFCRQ

[8] = biological target: T4, 5-hydroxytryptamine receptor 2C (Homo sapiens, UniProt P28335); assay: Agonistic binding affinity against human 5-hydroxytryptamine 2C receptor in CHO cells using [125I]- DOI; format: cell-based
T4 sequence (P28335 whole entry): T2 sequence (whole entry)

[9] = biological target: T1, 5-hydroxytryptamine receptor 2A; assay: Agonistic binding affinity against human 5-hydroxytryptamine 2A receptor in CHO cells using [125I]DOI radioligand

T1 sequence (P28223 whole entry): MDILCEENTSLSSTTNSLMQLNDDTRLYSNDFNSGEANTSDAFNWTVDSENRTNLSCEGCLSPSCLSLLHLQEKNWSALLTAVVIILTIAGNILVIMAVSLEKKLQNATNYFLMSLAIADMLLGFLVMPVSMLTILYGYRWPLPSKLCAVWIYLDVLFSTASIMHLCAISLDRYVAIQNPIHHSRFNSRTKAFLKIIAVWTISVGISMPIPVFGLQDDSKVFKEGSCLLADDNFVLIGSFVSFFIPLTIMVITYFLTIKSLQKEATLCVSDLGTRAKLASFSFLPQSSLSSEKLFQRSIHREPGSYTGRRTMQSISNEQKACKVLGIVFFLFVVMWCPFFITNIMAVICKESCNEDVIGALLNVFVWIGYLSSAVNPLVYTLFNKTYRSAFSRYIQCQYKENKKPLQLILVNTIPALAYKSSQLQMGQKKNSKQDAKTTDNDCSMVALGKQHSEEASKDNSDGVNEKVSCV
Sequence of D(3) dopamine receptor (Homo sapiens) (P35462 whole entry, looked up): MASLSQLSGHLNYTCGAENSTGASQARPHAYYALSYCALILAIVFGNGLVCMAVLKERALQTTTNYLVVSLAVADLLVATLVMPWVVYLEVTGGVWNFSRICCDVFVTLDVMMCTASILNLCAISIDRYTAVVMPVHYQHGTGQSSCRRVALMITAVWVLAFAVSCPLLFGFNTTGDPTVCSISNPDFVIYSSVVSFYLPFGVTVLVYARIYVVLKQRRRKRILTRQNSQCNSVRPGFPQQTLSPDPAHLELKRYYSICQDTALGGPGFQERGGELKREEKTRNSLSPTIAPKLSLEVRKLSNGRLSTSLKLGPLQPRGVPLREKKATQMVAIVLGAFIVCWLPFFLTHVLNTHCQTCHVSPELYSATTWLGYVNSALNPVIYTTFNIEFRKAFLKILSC
Sequence of D(4) dopamine receptor (Homo sapiens) (P21917 whole entry, looked up): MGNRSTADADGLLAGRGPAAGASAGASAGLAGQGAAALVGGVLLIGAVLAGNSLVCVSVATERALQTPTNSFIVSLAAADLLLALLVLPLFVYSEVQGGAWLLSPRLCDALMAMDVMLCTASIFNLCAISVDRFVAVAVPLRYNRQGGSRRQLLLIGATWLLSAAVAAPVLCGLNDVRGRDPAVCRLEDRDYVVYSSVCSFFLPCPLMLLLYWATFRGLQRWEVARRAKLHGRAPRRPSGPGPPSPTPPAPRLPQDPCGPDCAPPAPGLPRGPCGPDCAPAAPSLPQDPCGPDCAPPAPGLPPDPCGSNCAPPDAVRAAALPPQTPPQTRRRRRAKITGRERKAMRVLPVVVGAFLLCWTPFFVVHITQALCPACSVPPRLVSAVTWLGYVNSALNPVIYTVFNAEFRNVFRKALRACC

Q: With `Cc1cc2c3c(c1)c1c(n3CCNC2)CCCC1` as the molecule, how does the Ki [1] read?
A: 1230 nM

Q: For `c1cc2c3c(c1)c1c(n3CCNC2)CCCCC1`, which Efficacy [2] is on record?
A: 73%

Q: What about the Ki [1] of the same molecule?
A: 199 nM

Q: With `Cc1cc2c3c(c1)c1c(n3CCNC2)CCC1` as the molecule, how does the Ki [1] read?
A: 2530 nM

Q: With `c1cc2c3c(c1)c1c(n3CCNC2)CCCCCC1` as the molecule, how does the inhibition [3] read?
A: 47%

Q: What about the Efficacy [2] of the same molecule?
A: 102%

Q: What about the inhibition [4] of the same molecule?
A: 37%

Q: What about the Ki [1] of the same molecule?
A: 36 nM

Q: And the Emax [5]?
A: 102%

Q: And the EC50 [6]?
A: 64 µM

Q: What about the inhibition [7] of the same molecule?
A: 4%

Q: Which results are given for `CC1(C)Cc2c(c3cccc4c3n2CCNC4)C(C)(C)C1`?
A: Ki [1]: 152 nM; Ki [8]: 79 nM

Q: With `Fc1ccc2c3c1c1c(n3CCNC2)CCCC1` as the molecule, how does the Ki [8] read?
A: 111 nM

Q: With `C[C@@H]1Cn2c3c(c4cccc(c42)CN1)CCCC3` as the molecule, how does the Ki [1] read?
A: 1560 nM

Q: What does the source list for `c1cc2c3c(c1)c1c(n3CCNC2)CCC1`?
A: Emax [5]: 90%; Ki [9]: 922 nM
